The values below come from US20240336609A1, “PYRIDAZINONE COMPOUNDS AND USES THEREOF” (Edgewise Therapeutics, Inc., priority 2021, published 2024).

Assay [1] deals with T1, skeletal myofibrils (myosin ATPase activity) (Oryctolagus cuniculus, UniProt Q28641).
T1 construct: Rabbit Psoas Prep 11 (0.25 mg/mL)
Briefly: Skeletal Myofibril ATPase Assay (PK/LDH-coupled, NADH absorbance at 340 nm). The following applies: Rabbit Psoas myofibrils 0.25 mg/mL, ATP 0.05 mM, 1% DMSO vehicle = 100% activity. In kind it is biochemical. As for the experimental part:
Overview: Myosin ATPase activity was assessed by using a coupled reaction system, in which ADP generated by the myosin ATPase function was coupled to the disappearance of NADH through the pyruvate kinase/lactate dehydrogenase (PK-LDH) system. Myosin ATPase activity produces ADP, which was used as a substrate for PK to produce pyruvate and regenerate ATP. The pyruvate was then used as a substrate by LDH to oxidize NADH to NAD+. The rate of the reaction was monitored through the time-dependent disappearance of NADH using absorbance at 340 nm. Inhibition of ATPase activity by the assayed compounds was indicated by a reduced rate of NADH loss, relative to vehicle-treated controls, over the experimental time window. To assess the selectivity of the assayed compounds for skeletal myofibrils, the compounds were counter-screened in cardiac myofibrils.
Materials: The following stock solutions and reagents were used in the Skeletal Myofibril ATPase Assay:
Stock Solutions of pCa buffer. Combine PIPES, CaCl2), and EGTA solutions with 70 mL of water. Adjust pH to 7.0 and bring final volume to 100 mL.
Buffer A & Buffer B. Butters were stored on ice until use.
Skeletal Myofibril ATPase Assay Procedure: BSA, ATP, NADH, PEP, and DTT solutions were thawed at room temperature, then transferred to ice. Pellet-frozen myofibrils (approximately twice the required volume) were transferred into a sufficiently large tube and capped. Myofibrils were thawed by rolling in a water bath for approximately 15 min at room temperature and cooled on ice. Buffers A and B were prepared by adjusting volumes as necessary for required number of wells and stored on ice. 0.5 μL of the compounds to be assayed were added into wells of a 384-well plate. Buffers A and B were mixed by inversion immediately prior to use, then 25 μL of each was dispensed using a Multidrop dispenser (Buffer A first, then Buffer B). The absorbance within the wells was measured at 340 nm, using a kinetic protocol in which the wells are read every 1.5-2 min for 1 h. The reaction rate was qualitatively assessed by subtracting the minimum absorbance value from the maximum value for each well, using either the SoftMax Pro plate reader software or a spreadsheet program such as Excel. Using GraphPad Prism 8.0, the data was normalized, with 100% activity defined as the absorbance change in the 1% DMSO vehicle wells and 0% assigned to no change in absorbance over the course of the experiment. The normalized data were fit to a variable-slope four-parameter logistic model, constraining the bottom to be 0 or greater. Compounds of Table 1 to 3 were tested and results of the assay appear in Table 4 herein. A=IC50 is less than or equal to 10 μM; B=IC50 is greater than 10 μM and less than 100 μM; C=IC50 is greater than 100 μM.

The subject of assay [2] is embryos from zebrafish model of DMD. Particulars: cited from earlier work.

Usually IC50 stands for the concentration needed to halve the response being measured. A high value points to a need for much substance. Take “2-(5-(5-(4-chloropyridin-2-yl)- 1,2,4-oxadiazol-3-yl)-2-oxopyri- din-1(2H)-yl)-N-ethylacetamide [Compound 51]”: the IC50 in assay [1] was in the range of 10 to 100 µM. The same measure, in the same setting: in the case of “6-(3-(3-chlorophenyl)-1,2,4- thiadiazol-5-yl)-2-((3-(pyridin- 3-yl)-1,2,4-oxadiazol-5-yl)- methyl)pyridazin-3(2H)-one [Compound 22]” it was no less than 100 µM; in that of “6-(5-(3-chlorophenyl)-1,2,4- thiadiazol-3-yl)-2-((3-methyl- isoxazol-5-yl)methyl)pyridazin- 3(2H)-one [Compound 27]”, no more than 10 µM. In turn, “6-(5-(5-chloropyridin-3-yl)- 1,2,4-thiadiazol-3-yl)-2-((3- methylisoxazol-5-yl)methyl)- pyridazin-3(2H)-one [Compound 28]” gave an IC50 in assay [1] of no less than 100 µM. On to `Cc1ccc(S(=O)(=O)NCc2ccccc2)cc1` [N-benzyl-p-tolyl-sulfonamide (BTS), N-benzyl-p-tolyl-sulfonamide], for which the “protection of muscles from pathological muscle derangement” value in assay [2] was “protect muscles from pathological muscle derangement”. On to “N-ethyl-2-(5-(5-morpholino- 1,2,4-thiadiazol-3-yl)-2-oxo- pyridin-1(2H)-yl)acetamide [Compound 11]”, for which the IC50 in assay [1] lay in the range of 10 to 100 µM. Still for that read-out and setting: then “N-ethyl-2-(6-oxo-3-(5-(5- (trifluoromethyl)pyridin-3-yl)- 1,2,4-thiadiazol-3-yl)pyridazin- 1(6H)-yl)acetamide [Compound 19]”, with no less than 100 µM.
